Values joined by “and” are separate entries in the source; they are usually repeats but may differ in a detail not shown here. Identical values can stand only once. Toxic doses and inconclusive results are not listed. Cut-off read from the data, not from the text of the source: active = T/C of 150% or more; inactive = T/C below 125%.
Test system: L1210 leukemia ip in BDF1 mice, survival T/C
Experiment: NCI In Vivo Anticancer Drug Screen. Data for tumor model L1210 Leukemia (intraperitoneal) in B6D2F1 (BDF1) mice
Conditions: endpoint: mean survival time, higher = longer survival
Summary of the method: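 Each compound was tested against a transplantable tumor grown in mice. The endpoint was survival, with treated animals benchmarked against vehicle controls as a simple ratio.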

[1] = dose: 100.0 mg/kg/injection, schedule: Q01DX001 (ip), vehicle: saline with Tween-80
[2] = dose: 200.0 mg/kg/injection, schedule: Q01DX001 (ip), vehicle: saline with Tween-80
[3] = dose: 400.0 mg/kg/injection, schedule: Q01DX001 (ip), vehicle: saline with Tween-80
[4] = dose: 25.0 mg/kg/injection, schedule: Q04DX003 (ip), vehicle: saline
[5] = dose: 50.0 mg/kg/injection, schedule: Q01DX009 (ip), vehicle: saline
[6] = dose: 50.0 mg/kg/injection, schedule: Q04DX003 (ip), vehicle: saline
[7] = dose: 100.0 mg/kg/injection, schedule: Q01DX009 (ip), vehicle: saline
[8] = dose: 100.0 mg/kg/injection, schedule: Q04DX003 (ip), vehicle: saline
[9] = dose: 100.0 mg/kg/injection, schedule: Q01DX001 (ip), vehicle: saline
[10] = dose: 200.0 mg/kg/injection, schedule: Q01DX001 (ip), vehicle: saline
[11] = dose: 400.0 mg/kg/injection, schedule: Q01DX001 (ip), vehicle: saline
[12] = dose: 100.0 mg/kg/injection, schedule: Q01DX009 (ip), vehicle: Klucel (hydroxypropylcellulose) (HPC)
[13] = dose: 200.0 mg/kg/injection, schedule: Q01DX009 (ip), vehicle: Klucel (hydroxypropylcellulose) (HPC)
[14] = dose: 400.0 mg/kg/injection, schedule: Q01DX009 (ip), vehicle: Klucel (hydroxypropylcellulose) (HPC)
[15] = dose: 100.0 mg/kg/injection, schedule: Q04DX003 (ip), vehicle: Klucel (hydroxypropylcellulose) (HPC)
[16] = dose: 200.0 mg/kg/injection, schedule: Q04DX003 (ip), vehicle: Klucel (hydroxypropylcellulose) (HPC)
[17] = dose: 400.0 mg/kg/injection, schedule: Q04DX003 (ip), vehicle: Klucel (hydroxypropylcellulose) (HPC)
[18] = dose: 100.0 mg/kg/injection, schedule: Q04DX002 (ip), vehicle: saline

Measured: T/C

CC(C)=CCC/C(C)=C/CN1C(=O)CCCC1=O
inactive: [1] 104 % of control | dose: 150.0 mg/kg/injection, schedule: Q04DX003 (ip), vehicle: saline with Tween-80 94 % of control | [2] 97 % of control | dose: 300.0 mg/kg/injection, schedule: Q04DX003 (ip), vehicle: saline with Tween-80 94 % of control | [3] 93 % of control | dose: 600.0 mg/kg/injection, schedule: Q04DX003 (ip), vehicle: saline with Tween-80 90 % of control

CCN(CC)CCOc1ccc(OC)cc1
inactive: [4] 91 % of control | [5] 102 % of control | [6] 115 % of control | [7] 111 % of control | [8] 104 % of control and 121 % of control

CN(CSc1ccc([N+](=O)[O-])cc1)CSc1ccc([N+](=O)[O-])cc1
inactive: [9] 94 % of control | [10] 88 % of control | [11] 94 % of control

O=C(NCCCCCCNC(=O)Nc1ccccc1F)Nc1ccccc1F
inactive: [12] 100 % of control | [13] 89 % of control | [14] 92 % of control

O=C1C2C3CC(c4ccccc43)C2N1S(=O)(=O)Cl (stereo unspecified)
inactive: dose: 100.0 mg/kg/injection, schedule: Q04DX002 (ip), vehicle: Klucel (hydroxypropylcellulose) (HPC) 105 % of control | dose: 200.0 mg/kg/injection, schedule: Q04DX002 (ip), vehicle: Klucel (hydroxypropylcellulose) (HPC) 105 % of control | dose: 400.0 mg/kg/injection, schedule: Q04DX002 (ip), vehicle: Klucel (hydroxypropylcellulose) (HPC) 105 % of control

CCCCCCCCCCCCCCCCOc1ccc(C(=O)O)cc1NC(=O)CC(C)=O
inactive: [15] 92 % of control | [16] 95 % of control | [17] 92 % of control

CCC(Cl)C(=O)Nc1ccccc1 (stereo unspecified)
inactive: dose: 50.0 mg/kg/injection, schedule: Q01DX001 (ip), vehicle: saline 96 % of control | [9] 108 % of control | [10] 102 % of control | [11] 104 % of control

CC1(c2ccsc2)NC(=O)NC1=O (stereo unspecified)
inactive: [9] 93 % of control | [10] 93 % of control | [11] 90 % of control

S=C(SP(SC(=S)N1CCCCC1)SC(=S)N1CCCCC1)N1CCCCC1
inactive: [18] 95 % of control | dose: 200.0 mg/kg/injection, schedule: Q04DX002 (ip), vehicle: saline 89 % of control | dose: 400.0 mg/kg/injection, schedule: Q04DX002 (ip), vehicle: saline 95 % of control

COC(=O)C(CSC(c1ccc(N(C)C)cc1)c1ccc(N(C)C)cc1)NC(=O)OCc1ccccc1 (stereo unspecified)
inactive: dose: 75.0 mg/kg/injection, schedule: Q01DX001 (ip), vehicle: carboxymethylcellulose (CMC) 97 % of control | dose: 300.0 mg/kg/injection, schedule: Q01DX001 (ip), vehicle: carboxymethylcellulose (CMC) 94 % of control

CC(C)Cc1ccccc1
inactive: [12] 106 % of control | [15] 110 % of control | [13] 100 % of control | [16] 96 % of control | [14] 122 % of control | [17] 96 % of control

O=P(OCc1ccccc1)(N(CCCl)CCCl)N1CCN(P(=O)(OCc2ccccc2)N(CCCl)CCCl)CC1 (stereo unspecified)
inactive: dose: 16.0 mg/kg/injection, schedule: Q01DX Z (ip), vehicle: saline 94 % of control | dose: 32.0 mg/kg/injection, schedule: Q01DX Z (ip), vehicle: saline 89 % of control | dose: 64.0 mg/kg/injection, schedule: Q01DX Z (ip), vehicle: saline 95 % of control | dose: 128.0 mg/kg/injection, schedule: Q01DX Z (ip), vehicle: saline 111 % of control

[NH-]C(CC(N)=O)C(=O)O.[NH-]C(CC(N)=O)C(=O)O.[Ni+2] (stereo unspecified)
inactive: dose: 6.25 mg/kg/injection, schedule: Q01DX009 (ip), vehicle: water 92 % of control | dose: 12.5 mg/kg/injection, schedule: Q01DX009 (ip), vehicle: water 91 % of control | dose: 25.0 mg/kg/injection, schedule: Q01DX009 (ip), vehicle: water 88 % of control | dose: 25.0 mg/kg/injection, schedule: Q04DX002 (ip), vehicle: saline 110 % of control | dose: 50.0 mg/kg/injection, schedule: Q04DX002 (ip), vehicle: saline 100 % of control | dose: 50.0 mg/kg/injection, schedule: Q04DX003 (ip), vehicle: water 112 % of control | [18] 123 % of control | dose: 100.0 mg/kg/injection, schedule: Q04DX003 (ip), vehicle: water 117 % of control

COCCOC(N)=O
inactive: [9] 105 % of control | [10] 115 % of control | [11] 95 % of control

CCCCC(/C=N\NC(=O)c1ccc[n+](C)c1)=C/c1ccccc1
inactive: [1] 96 % of control | [2] 102 % of control

CCC(=O)Nc1cccc(OP(=O)(N(C)C)N(C)C)c1
inactive: [1] 96 % of control | [2] 102 % of control | [3] 88 % of control

CCCNC(C)C(=O)c1ccccc1 (stereo unspecified)
inactive: dose: 12.5 mg/kg/injection, schedule: Q01DX009 (ip), vehicle: saline 93 % of control | dose: 25.0 mg/kg/injection, schedule: Q01DX009 (ip), vehicle: saline 97 % of control | [5] 108 % of control | [7] 86 % of control

C[NH-].C[NH-].C[NH-].[Cl][Rh]([Cl])[Cl]
inactive: [4] 96 % of control | [6] 96 % of control | [8] 96 % of control

CN(C(=O)N(C)S(=O)(=O)c1ccccc1)S(=O)(=O)c1ccccc1
inactive: dose: 75.0 mg/kg/injection, schedule: Q04DX003 (ip), vehicle: Klucel (hydroxypropylcellulose) (HPC) 100 % of control | dose: 150.0 mg/kg/injection, schedule: Q04DX003 (ip), vehicle: Klucel (hydroxypropylcellulose) (HPC) 101 % of control | dose: 300.0 mg/kg/injection, schedule: Q04DX003 (ip), vehicle: Klucel (hydroxypropylcellulose) (HPC) 94 % of control
